Blank lines part the entries; values can stand above or below the compound they belong to. Calls of active or inactive are those of the source. The rule behind the calls is not given here.
Legend:
[1] = target: T1, Peroxisome proliferator-activated receptor alpha (Homo sapiens) (UniProt Q07869); experiment: Agonist activity at human PPARalpha expressed in African green monkey COS7 cells assessed as increase in receptor transcriptional activity at 10 uM by luciferase reporter gene assay relative to WY-14643; type: cell-based
T1 sequence (whole entry): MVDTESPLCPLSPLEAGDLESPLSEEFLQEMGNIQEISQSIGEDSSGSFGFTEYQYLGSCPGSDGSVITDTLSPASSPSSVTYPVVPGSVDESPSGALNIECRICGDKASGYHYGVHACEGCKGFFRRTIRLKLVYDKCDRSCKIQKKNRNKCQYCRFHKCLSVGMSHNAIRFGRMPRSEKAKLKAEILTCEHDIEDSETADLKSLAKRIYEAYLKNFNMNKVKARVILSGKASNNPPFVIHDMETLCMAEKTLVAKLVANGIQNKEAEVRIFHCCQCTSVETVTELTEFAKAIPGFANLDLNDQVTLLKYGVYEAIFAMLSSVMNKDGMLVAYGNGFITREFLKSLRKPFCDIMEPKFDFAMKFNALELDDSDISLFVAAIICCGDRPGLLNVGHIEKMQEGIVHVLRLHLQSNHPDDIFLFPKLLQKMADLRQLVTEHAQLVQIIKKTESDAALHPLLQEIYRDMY

[2] = target: T2, Peroxisome proliferator-activated receptor alpha (Homo sapiens, UniProt Q07869); experiment: Agonist activity at human PPARalpha expressed in African green monkey COS7 cells assessed as increase in receptor transcriptional activity by luciferase reporter gene assay relative to WY-14643; type: cell-based
T2 sequence (Q07869 whole entry): T1 sequence (whole entry)

[3] = target: T3, Peroxisome proliferator-activated receptor gamma (Homo sapiens, UniProt P37231); experiment: Agonist activity at human PPARgamma expressed in African green monkey COS7 cells assessed as increase in receptor transcriptional activity by luciferase reporter gene assay relative to rosiglitazone; type: cell-based
T3 sequence (P37231 whole entry): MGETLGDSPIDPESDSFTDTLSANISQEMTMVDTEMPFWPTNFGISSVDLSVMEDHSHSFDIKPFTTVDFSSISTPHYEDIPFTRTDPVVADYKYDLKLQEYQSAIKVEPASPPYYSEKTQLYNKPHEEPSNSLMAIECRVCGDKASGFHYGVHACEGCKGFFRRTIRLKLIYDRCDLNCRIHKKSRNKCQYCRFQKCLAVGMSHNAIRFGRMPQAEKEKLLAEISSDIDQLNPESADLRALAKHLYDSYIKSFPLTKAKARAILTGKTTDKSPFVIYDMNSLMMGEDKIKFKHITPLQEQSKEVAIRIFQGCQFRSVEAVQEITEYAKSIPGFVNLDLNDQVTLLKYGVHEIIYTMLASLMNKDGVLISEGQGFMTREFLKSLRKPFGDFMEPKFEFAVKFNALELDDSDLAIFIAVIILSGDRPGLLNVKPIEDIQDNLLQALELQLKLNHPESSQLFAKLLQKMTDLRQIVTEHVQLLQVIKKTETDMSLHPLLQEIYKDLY

Neutrophil [4] = experiment: Cytotoxicity against human neutrophils assessed as reduction in cell viability at 30 uM incubated for 24 hrs by MTT assay; type: cell-based
HUVEC [5] = experiment: Cytotoxicity against HUVEC assessed as reduction in cell viability at 30 uM incubated for 24 hrs by MTT assay; type: cell-based; conditions: human
[6] = Cytotoxicity against human neutrophils assessed as cell viability at 30 uM incubated for 24 hrs by MTT assay; type: cell-based, Neutrophil; conditions: read-out: Activity
[7] = Cytotoxicity against HUVEC assessed as cell viability at 30 uM incubated for 24 hrs by MTT assay; type: cell-based; conditions: human, HUVEC cells; read-out: Activity
Neutrophil [8] = experiment: Induction of apoptosis in human neutrophils at 30 uM incubated for 24 hrs by annexin V-FITC and propidium iodide staining based flow cytometry; type: cell-based
HUVEC [9] = experiment: Induction of apoptosis in HUVEC at 30 uM incubated for 24 hrs by annexin V-FITC and propidium iodide staining based flow cytometry; type: cell-based; conditions: human
HUVEC [10] = experiment: (§1) Anti-inflammatory activity in HUVEC assessed as reduction in TNFalpha-stimulated neutrophil-HUVEC interactions by measuring decrease in neutrophil adhesion to endothelial cells at 1 uM pretreated for 20 hrs before TNFalpha stimulation for 24 hrs using freshly isolated neutrophils perfused over endothelial monolayers for 5 mins by phase contrast microscopy; type: functional, cell-based; conditions: Homo sapiens
HUVEC [11] = experiment: as §1, with “mononuclear leukocyte” for “neutrophil adhesion”, “mononuclear leukocytes” for “neutrophils”; type: functional, cell-based; conditions: Homo sapiens
HUVEC [12] = experiment: as §1, with “mononuclear leukocyte” for “neutrophil adhesion”, “cells” for “cells at 1 uM”, “mononuclear leukocytes” for “neutrophils”; type: functional, cell-based; conditions: Homo sapiens
HUVEC [13] = experiment: as §1, with “mononuclear leukocyte” for “neutrophil adhesion”, “10” for “1”, “treated” for “pretreated”, “post 48 hrs after control siRNA transfection followed by” for “before”, “mononuclear leukocytes” for “neutrophils”; type: functional, cell-based; conditions: Homo sapiens
HUVEC [14] = experiment: as §1, with “mononuclear leukocyte” for “neutrophil adhesion”, “10” for “1”, “treated” for “pretreated”, “post 48 hrs after PPARalpha siRNA transfection followed by” for “before”, “mononuclear leukocytes” for “neutrophils”; type: functional, cell-based; conditions: Homo sapiens
HUVEC [15] = experiment: as §1, with “mononuclear leukocyte” for “neutrophil adhesion”, “10” for “1”, “treated” for “pretreated”, “post 48 hrs after PPARgamma siRNA transfection followed by” for “before”, “mononuclear leukocytes” for “neutrophils”; type: functional, cell-based; conditions: Homo sapiens
HUVEC [16] = experiment: as §1, with “mononuclear leukocyte” for “neutrophil adhesion”, “10” for “1”, “treated” for “pretreated”, “post 48 hrs after RXRalpha siRNA transfection followed by” for “before”, “mononuclear leukocytes” for “neutrophils”; type: functional, cell-based; conditions: Homo sapiens
[17] = target: RXR alpha/PPAR gamma (Homo sapiens) (UniProt P37231+P19793); experiment: Induction of RXRalpha/PPARgamma interaction in HUVEC at 10 uM pretreated for 20 hrs before TNFalpha stimulation by immunoprecipitation and Western blotting analysis; type: cell-based
HUVEC [18] = experiment: as §1, with “mononuclear leukocyte” for “neutrophil adhesion”, “10” for “1”, “mononuclear leukocytes” for “neutrophils”, “mins in presence of PPARgamma antagonist GW9662” for “mins”; type: functional, cell-based; conditions: Homo sapiens
HUVEC [19] = experiment: as §1, with “mononuclear leukocyte” for “neutrophil adhesion”, “10” for “1”, “mononuclear leukocytes” for “neutrophils”, “mins in presence of PPARalpha antagonist GW6471” for “mins”; type: functional, cell-based; conditions: Homo sapiens
[20] = target: T4, Peroxisome proliferator-activated receptor gamma (Homo sapiens) (UniProt P37231); conditions: at 10 µM
T4 sequence (whole entry): T3 sequence (P37231 whole entry)

HUVEC [21] = experiment: as §1, with “mononuclear leukocyte” for “neutrophil adhesion”, “treated” for “pretreated”, “post 48 hrs after control siRNA transfection followed by” for “before”, “mononuclear leukocytes” for “neutrophils”; type: functional, cell-based; conditions: Homo sapiens
HUVEC [22] = experiment: as §1, with “mononuclear leukocyte” for “neutrophil adhesion”, “treated” for “pretreated”, “28” for “20”, “post 48 hrs after PPARalpha siRNA transfection followed by” for “before”, “mononuclear leukocytes” for “neutrophils”; type: functional, cell-based; conditions: Homo sapiens
Neutrophil [23] = experiment: Cytotoxicity against human neutrophils assessed as induction of cell damage at 30 uM incubated for 24 hrs by MTT assay; type: cell-based
HUVEC [24] = experiment: Cytotoxicity against HUVEC assessed as induction of cell damage at 30 uM incubated for 24 hrs by MTT assay; type: cell-based; conditions: human

Structure (SMILES): Cc1cccc(Nc2cc(Cl)nc(SCC(=O)O)n2)c1C [PIRINIXIC ACID]
EC50 [3]: Not Active | Activity (HUVEC [10]): inactive

Structure (SMILES): CN(CCOc1ccc(CC2SC(=O)NC2=O)cc1)c1ccccn1 (stereo unspecified) [ROSIGLITAZONE]
Efficacy [1]: inactive | EC50 [2]: Not Active | Activity (Neutrophil [4]): Toxic | Activity (HUVEC [5]): Toxic | Activity (HUVEC [10]): inactive | Activity (HUVEC [11]): Active | inhibition (HUVEC [12]): Dose-dependent effect | Activity (HUVEC [21]): Active | Activity (HUVEC [22]): Active

Structure (SMILES): COC(=O)COC(=O)/C(C)=C/CC/C(C)=C/CC[C@]1(C)CCc2cc(OC)cc(C)c2O1
Efficacy [1]: 39% | Efficacy [20]: 24%

Structure (SMILES): COC(=O)C(OC(=O)/C(C)=C/CC/C(C)=C/CC[C@]1(C)CCc2cc(OC)cc(C)c2O1)C(=O)OC
Efficacy [1]: 76% | EC50 ([2]; read-out: EC50): 1.62 µM | Efficacy [20]: 37%

Structure (SMILES): CCCOC(=O)/C(C)=C/CC/C(C)=C/CC[C@]1(C)CCc2cc(O)cc(C)c2O1
Efficacy [1]: 49% | EC50 ([3]; read-out: EC50): 0.991 µM | Efficacy [20]: 86%

Structure (SMILES): COc1cc(C)c2c(c1)CC[C@@](C)(CC/C=C(\C)CC/C=C(\C)C(=O)O)O2
Efficacy [1]: 82% | EC50 ([2]; read-out: EC50): 1 µM | EC50 ([3]; read-out: EC50): 1 µM | Activity (Neutrophil [23]): Toxic | Activity (HUVEC [24]): Toxic | Efficacy [20]: 55%

Structure (SMILES): COC(=O)COC(=O)/C(C)=C/CC/C(C)=C/CC[C@]1(C)CCc2cc(OC(=O)c3ccccc3)cc(C)c2O1
Efficacy [1]: 14%

Now from value to compound, other results behind:

Efficacy [1]: inactive
Structure (SMILES): CC1=C(/C=C/C(C)=C\C=C\C(C)=C\C(=O)O)C(C)(C)CCC1

Efficacy [1]: 107% | EC50 ([2]; read-out: EC50): 0.184 µM | EC50 ([3]; read-out: EC50): 0.084 µM | Activity [17]: Active | Efficacy [20]: 95%
Structure (SMILES): C/C(=C\CC[C@]1(C)CCc2cc(O)cc(C)c2O1)CC/C=C(\C)C(=O)O
Activity (Neutrophil [4]): Non-Toxic | Activity (HUVEC [5]): Non-Toxic | viability at 24 h, 30 µM [6]: 89.2% | viability at 24 h, 30 µM [7]: 73.4% | Activity (Neutrophil [8]): Non-Toxic | Activity (HUVEC [9]): Non-Toxic | Activity (HUVEC [10]): inactive | Activity (HUVEC [11]): Active | IC50 (HUVEC [12]): 4.9 µM | Activity (HUVEC [13]): Active | Activity (HUVEC [14]): Active | Activity (HUVEC [15]): inactive | Activity (HUVEC [16]): inactive | Activity (HUVEC [18]): inactive | Activity (HUVEC [19]): Active

Efficacy [1]: 27% | Efficacy [20]: 35%
Structure (SMILES): COC(=O)/C(C)=C/CC/C(C)=C/CC[C@]1(C)CCc2cc(O)cc(C)c2O1

Efficacy [1]: 28%
Structure (SMILES): C/C(=C\CC[C@]1(C)CCc2cc(OCc3ccccc3)cc(C)c2O1)CC/C=C(\C)C(=O)OCc1ccccc1

Efficacy [1]: inactive
Structure (SMILES): Cc1cc(SCc2sc(-c3ccc(C(F)(F)F)cc3)nc2C)ccc1OCC(=O)O

Efficacy [1]: 191% | EC50 ([2]; read-out: EC50): 1 µM | EC50 ([3]; read-out: EC50): 1.69 µM | Efficacy [20]: 88%
Structure (SMILES): CCCOc1cc(C)c2c(c1)CC[C@@](C)(CC/C=C(\C)CC/C=C(\C)C(=O)O)O2

Efficacy [1]: 18%
Structure (SMILES): C/C(=C\CC[C@]1(C)CCc2cc(OCC(N)=O)cc(C)c2O1)CC/C=C(\C)C(=O)OCc1ccccc1

Reference: ChEMBL document CHEMBL4339250 (J Nat Prod, 2019)
